According to patent US6743817B2, “Substituted fused pyrroleimines and pyrazoleimines” (Neurogen Corporation, priority 2000, dated 2004):

melting point: 259 to 261 °C (dec.)
SMILES: COc1ccc(NC(=O)c2n[nH]c3c2C(=NC(C)C)CCC3)cc1F
